biological target: T1, CDK8/CycC (Homo sapiens, UniProt P49336); experiment: FRET based Lanthascreen binding competition assay for CDK8 inhibitory activity; conditions: CDK8 co-expressed with CycC; class symbols; read-out: IC50
T1 construct: purchased Invitrogen PV4402
From the text: Biochemical Assay for CDK8 Inhibitory Activity FRET based Lanthascreen binding competition assay: A dye-labeled ATP competitive probe served as a FRET acceptor upon binding to CDK8 labeled with a strepavidin -Eu-chelate (via a biotinylated anti His antibody). The result was a fluorescence signal at 647 nm. In case this probe was competed by an inhibitor, such a signal cannot be generated any more. The CDK8 used for this assay was a protein co-expressed with CycC. The assay procedure for an assay in a 1536 well plate was performed according to the following: 2 μL CDK8/biotin-anti-His Ab/SA-Eu mix in Assay buffer were pipetted into the wells of a micro plate. 1 μL compound in 20 mM Hepes buffer/5% DMSO was added. The plate was shaken for 30 sec and incubated for 20 min at RT. 2 μL Alexa647-probe in assay buffer were added. The plate was shaken for 30 sec again and incubated for 60 min at RT in the dark. Then the plate was read out on a Perkin Elmer Envision (mode LANCE/TRF, excitation 340 nm emission 650 nm). […] The readouts were fitted to IC50 curves using Genedata Condoseo.

T1 sequence (P49336 whole entry): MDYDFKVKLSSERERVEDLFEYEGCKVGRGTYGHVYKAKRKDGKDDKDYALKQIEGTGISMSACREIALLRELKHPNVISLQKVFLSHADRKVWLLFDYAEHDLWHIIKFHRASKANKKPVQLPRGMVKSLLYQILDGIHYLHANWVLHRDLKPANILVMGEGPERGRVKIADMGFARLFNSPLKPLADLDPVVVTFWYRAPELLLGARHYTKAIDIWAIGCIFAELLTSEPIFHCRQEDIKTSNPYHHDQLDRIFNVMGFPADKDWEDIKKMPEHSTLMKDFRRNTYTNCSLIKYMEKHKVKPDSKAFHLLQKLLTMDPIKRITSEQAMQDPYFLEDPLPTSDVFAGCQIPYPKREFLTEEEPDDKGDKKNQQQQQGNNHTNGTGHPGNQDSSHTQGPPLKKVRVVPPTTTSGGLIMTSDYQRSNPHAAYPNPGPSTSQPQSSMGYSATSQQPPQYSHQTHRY
T1 sequence (P24863 whole entry partner): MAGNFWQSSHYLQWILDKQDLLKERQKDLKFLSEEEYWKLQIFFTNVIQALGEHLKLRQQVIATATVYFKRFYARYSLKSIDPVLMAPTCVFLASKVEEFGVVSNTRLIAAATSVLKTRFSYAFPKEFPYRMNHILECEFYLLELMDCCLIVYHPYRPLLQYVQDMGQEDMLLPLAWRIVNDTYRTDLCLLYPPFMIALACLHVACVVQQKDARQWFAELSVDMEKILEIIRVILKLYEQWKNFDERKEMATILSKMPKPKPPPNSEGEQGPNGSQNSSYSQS

SMILES | IC50 [µM]
CCCc1n[nH]c2ccc(C(=O)N3CCCC3c3ccc(Br)cc3)cc12 (racemic) [compound 4, [2-(4-Bromo-phenyl)-pyrrolidin-1-yl]-(3-propyl-1H-indazol-5-yl)-methanone] | < 0.01
O=C(c1ccc2[nH]ncc2c1)N1CCCC1c1ccc(Br)cc1 (racemic) [compound 154] | 0.01 to 0.1
O=C(c1cnc2[nH]nc(C(F)(F)F)c2c1)N1CCCC1c1ccc(Cl)cc1 (racemic) [compound 177, [2-(4-Chloro-phenyl)-pyrrolidin-1-yl]-(3-trifluoromethyl-1H-pyrazolo[3,4-b]pyridin-5-yl)-methanone] | 0.01 to 0.1
CC(C)c1ccc(C2CCCN2C(=O)c2ccc3[nH]nc(N)c3c2)cc1 (racemic) [compound 191, (3-Amino-1H-indazol-5-yl)-[2-(4-isopropyl-phenyl)-pyrrolidin-1-yl]-methanone] | 0.01 to 0.1
Cc1n[nH]c2ncc(C(=O)N3CCCC3c3ccc(C(C)C)cc3)cc12 (racemic) [compound 192, [2-(4-Isopropyl-phenyl)-pyrrolidin-1-yl]-(3-methyl-1H-pyrazolo[3,4-b]pyridin-5-yl)-methanone] | < 0.01
Cc1n[nH]c2ncc(C(=O)N3CCC(O)(c4ccccc4)C3)cc12 (racemic) [compound 193, (3-Hydroxy-3-phenyl-pyrrolidin-1-yl)-(3-methyl-1H-pyrazolo[3,4-b]pyridin-5-yl)-methanone] | 1 to 10
CC(=O)N[C@@H]1CN(C(=O)c2ccc3[nH]nc(N)c3c2)C[C@H]1c1ccc(Cl)cc1 (racemic) [compound 263, N-[(3S,4R)-1-(3-Amino-1H-indazole-5-carbonyl)-4-(4-chloro-phenyl)-pyrrolidin-3-yl]-acetamide (racemic)] | 0.01 to 0.1
CC(=O)N[C@@H]1CN(C(=O)c2cnc3[nH]nc(C)c3c2)C[C@H]1c1ccc(Cl)cc1 (racemic) [compound 264, N-[(3S,4R)-4-(4-Chloro-phenyl)-1-(3-methyl-1H-pyrazolo[3,4-b]pyridine-5-carbonyl)-pyrrolidin-3-yl]-acetamide (racemic)] | 0.01 to 0.1
Nc1n[nH]c2ccc(C(=O)N3CCCCC3Cc3ccccc3)cc12 (stereo in doubt) [compound 86, (3-Amino-1H-indazol-5-yl)-((S)-2-benzyl-piperidin-1-yl)-methanone] | 0.01 to 0.1
Nc1n[nH]c2ccc(C(=O)N3CCCCC3Cc3ccccc3)cc12 (stereo in doubt) [compound 89, (3-Amino-1H-indazol-5-yl)-((R)-2-benzyl-piperidin-1-yl)-methanone] | 0.1 to 1
Cc1n[nH]c2ncc(C(=O)N3CC[C@H](C)C3c3ccc(C(F)(F)F)cc3)cc12 (stereo in doubt) [compound 171, (3-Methyl-1H-pyrazolo[3,4-b]pyridin-5-yl)-[(2S,3S)-3-methyl-2-(4-trifluoromethyl-phenyl)-pyrrolidin-1-yl]-methanone] | 0.01 to 0.1
O=C(c1cnc2[nH]nc(C(F)(F)F)c2c1)N1CCC[C@H]1c1ccc(Cl)cc1 (stereo in doubt) [compound 180, [(S)-2-(4-Chloro-phenyl)-pyrrolidin-1-yl]-(3-trifluoromethyl-1H-pyrazolo[3,4-b]pyridin-5-yl)-methanone] | < 0.01
O=C(c1cnc2[nH]nc(C(F)(F)F)c2c1)N1CCC[C@@H]1c1ccc(Cl)cc1 (stereo in doubt) [compound 181, [(R)-2-(4-Chloro-phenyl)-pyrrolidin-1-yl]-(3-trifluoromethyl-1H-pyrazolo[3,4-b]pyridin-5-yl)-methanone] | 0.1 to 1
Cc1n[nH]c2ncc(C(=O)N3CCC(O)(c4ccccc4)C3)cc12 (stereo in doubt) [compound 199, ((R)-3-Hydroxy-3-phenyl-pyrrolidin-1-yl)-(3-methyl-1H-pyrazolo[3,4-b]pyridin-5-yl)-methanone] | 1 to 10
Cc1n[nH]c2ncc(C(=O)N3CCCC3c3ccc(Br)cc3)cc12 (centres unmarked) [compound 1, [2-(4-Bromo-phenyl)-pyrrolidin-1-yl]-(3-methyl-1H-pyrazolo[3,4-b]pyridin-5-yl)-methanone] | < 0.01
Cc1n[nH]c2ncc(C(=O)N3CCC[C@H]3c3ccc(Br)cc3)cc12 [compound 2, [(S)-2-(4-Bromo-phenyl)-pyrrolidin-1-yl]-(3-methyl-1H-pyrazolo[3,4-b]pyridin-5-yl)-methanone] | < 0.01
Cc1n[nH]c2ncc(C(=O)N3CCC[C@@H]3c3ccc(Br)cc3)cc12 [compound 3, [(R)-2-(4-Bromo-phenyl)-pyrrolidin-1-yl]-(3-methyl-1H-pyrazolo[3,4-b]pyridin-5-yl)-methanone] | 0.1 to 1

SMILES | IC50 [µM]
CCCc1n[nH]c2ccc(C(=O)N3CCC[C@H]3c3ccc(Br)cc3)cc12 [compound 5, [(S)-2-(4-Bromo-phenyl)-pyrrolidin-1-yl]-(3-propyl-1H-indazol-5-yl)-methanone] | < 0.01
CCCc1n[nH]c2ccc(C(=O)N3CCC[C@@H]3c3ccc(Br)cc3)cc12 [compound 6, [(R)-2-(4-bromo-phenyl)-pyrrolidin-1-yl]-(3-propyl-1H-indazol-5-yl)-methanone] | 0.1 to 1
CCCc1n[nH]c2ccc(C(=O)N3CCCC3c3ccc(Cl)cc3)cc12 (centres unmarked) [compound 9, [2-(4-Chloro-phenyl)-pyrrolidin-1-yl]-(3-propyl-1H-indazol-5-yl)-methanone] | < 0.01
CCCc1n[nH]c2ccc(C(=O)N3CCC[C@H]3c3ccc(Cl)cc3)cc12 [compound 11, [(S)-2-(4-Chloro-phenyl)-pyrrolidin-1-yl]-(3-propyl-1H-indazol-5-yl)-methanone] | < 0.01
CCCc1n[nH]c2ccc(C(=O)N3CCC[C@@H]3c3ccc(Cl)cc3)cc12 [compound 12, [(R)-2-(4-Chloro-phenyl)-pyrrolidin-1-yl]-(3-propyl-1H-indazol-5-yl)-methanone] | 0.1 to 1
Cc1n[nH]c2ncc(C(=O)N3CCCCC3c3ccc(F)cc3)cc12 (centres unmarked) [compound 15, [2-(4-Fluoro-phenyl)-piperidin-1-yl]-(3-methyl-1H-pyrazolo[3,4-b]pyridin-5-yl)-methanone] | 0.01 to 0.1
Cc1n[nH]c2ncc(C(=O)N3CCCC[C@H]3c3ccc(F)cc3)cc12 [compound 17, [(S)-2-(4-Fluoro-phenyl)-piperidin-1-yl]-(3-methyl-1H-pyrazolo[3,4-b]pyridin-5-yl)-methanone] | 0.01 to 0.1
Cc1n[nH]c2ncc(C(=O)N3CCCCC3c3ccccc3)cc12 (centres unmarked) [compound 18, (3-Methyl-1H-pyrazolo[3,4-b]pyridin-5-yl)-(2-phenyl-piperidin-1-yl)-methanone] | 0.01 to 0.1
Cc1n[nH]c2ncc(C(=O)N3CCCCC3Cc3ccccc3)cc12 (centres unmarked) [compound 19, (2-Benzyl-piperidin-1-yl)-(3-methyl-1H-pyrazolo[3,4-b]pyridin-5-yl)-methanone] | 0.1 to 1
Cc1n[nH]c2ncc(C(=O)N3CCCC3c3ccccc3)cc12 (centres unmarked) [compound 20, (3-Methyl-1H-pyrazolo[3,4-b]pyridin-5-yl)-(2-phenyl-pyrrolidin-1-yl)-methanone] | < 0.01
Cc1n[nH]c2ncc(C(=O)N3CCCC3c3cccc(Cl)c3)cc12 (centres unmarked) [compound 21, [2-(3-Chloro-phenyl)-pyrrolidin-1-yl]-(3-methyl-1H-pyrazolo[3,4-b]pyridin-5-yl)-methanone] | 0.01 to 0.1
Cc1n[nH]c2ncc(C(=O)N3CCC(c4ccccc4)C3)cc12 (centres unmarked) [compound 22, (3-Methyl-1H-pyrazolo[3,4-b]pyridin-5-yl)-(3-phenyl-pyrrolidin-1-yl)-methanone] | 0.01 to 0.1
Cc1n[nH]c2ncc(C(=O)N3CCCC3c3ccccc3Cl)cc12 (centres unmarked) [compound 23, [2-(2-Chloro-phenyl)-pyrrolidin-1-yl]-(3-methyl-1H-pyrazolo[3,4-b]pyridin-5-yl)-methanone] | 0.01 to 0.1
Cc1n[nH]c2ncc(C(=O)N3CCCC[C@H]3Cc3ccccc3)cc12 [compound 24, ((S)-2-Benzyl-piperidin-1-yl)-(3-methyl-1H-pyrazolo[3,4-b]pyridin-5-yl)-methanone] | 0.1 to 1
Cc1n[nH]c2ncc(C(=O)N3CCCC3c3ccc(F)cc3)cc12 (centres unmarked) [compound 26, [2-(4-Fluoro-phenyl)-pyrrolidin-1-yl]-(3-methyl-1H-pyrazolo[3,4-b]pyridin-5-yl)-methanone] | < 0.01
Cc1n[nH]c2ncc(C(=O)N3CCCC[C@H]3c3ccccc3)cc12 [compound 28, (3-Methyl-1H-pyrazolo[3,4-b]pyridin-5-yl)-((S)-2-phenyl-piperidin-1-yl)-methanone] | 0.01 to 0.1
Cc1n[nH]c2ncc(C(=O)N3CCCC3c3ccccn3)cc12 (centres unmarked) [compound 30, (3-Methyl-1H-pyrazolo[3,4-b]pyridin-5-yl)-(2-pyridin-2-yl-pyrrolidin-1-yl)-methanone] | 0.1 to 1

same assay, conditions: IC50 [μM], CDK8 co-expressed with CycC; class symbols

SMILES | IC50 [µM]
Cc1n[nH]c2ncc(C(=O)N3CCCC3c3ccc(Cl)cc3)cc12 (racemic) [compound 10, [2-(4-Chloro-phenyl)-pyrrolidin-1-yl]-(3-methyl-1H-pyrazolo[3,4-b]pyridin-5-yl)-methanone] | < 0.01
Nc1n[nH]c2ccc(C(=O)N3CCCC3c3ccc(Cl)cc3)cc12 (racemic) [compound 78, (3-Amino-1H-indazol-5-yl)-[2-(4-chloro-phenyl)-pyrrolidin-1-yl]-methanone] | < 0.01
Cc1n[nH]c2ncc(C(=O)N3CCC[C@H]3c3ccc(Cl)cc3)cc12 [compound 13] | < 0.01
Cc1n[nH]c2ncc(C(=O)N3CCC[C@@H]3c3ccc(Cl)cc3)cc12 [compound 14, [(R)-2-(4-Chloro-phenyl)-pyrrolidin-1-yl]-(3-methyl-1H-pyrazolo[3,4-b]pyridin-5-yl)-methanone] | 0.1 to 1

— patent US9862717B2 (Merck Patent GmbH, priority 2014, dated 2018)
